18 molecules from patent US9796733B2, “Imidazo-pyrazine derivatives useful as soluble guanylate cyclase activators” (Merck Sharp & Dohme Corp., priority 2014, dated 2017) can be followed below.

pEC50: −log10 of the molar value.

This assay deals with T1, sGC α1/β1 heterodimer (Homo sapiens, UniProt Q02108+Q02153).
T1 construct: expressed in transfected cells; host or cells: CHO-K1 (clone #7, CHO-K1/sGC)
T1 sequence (Q02108 1-690): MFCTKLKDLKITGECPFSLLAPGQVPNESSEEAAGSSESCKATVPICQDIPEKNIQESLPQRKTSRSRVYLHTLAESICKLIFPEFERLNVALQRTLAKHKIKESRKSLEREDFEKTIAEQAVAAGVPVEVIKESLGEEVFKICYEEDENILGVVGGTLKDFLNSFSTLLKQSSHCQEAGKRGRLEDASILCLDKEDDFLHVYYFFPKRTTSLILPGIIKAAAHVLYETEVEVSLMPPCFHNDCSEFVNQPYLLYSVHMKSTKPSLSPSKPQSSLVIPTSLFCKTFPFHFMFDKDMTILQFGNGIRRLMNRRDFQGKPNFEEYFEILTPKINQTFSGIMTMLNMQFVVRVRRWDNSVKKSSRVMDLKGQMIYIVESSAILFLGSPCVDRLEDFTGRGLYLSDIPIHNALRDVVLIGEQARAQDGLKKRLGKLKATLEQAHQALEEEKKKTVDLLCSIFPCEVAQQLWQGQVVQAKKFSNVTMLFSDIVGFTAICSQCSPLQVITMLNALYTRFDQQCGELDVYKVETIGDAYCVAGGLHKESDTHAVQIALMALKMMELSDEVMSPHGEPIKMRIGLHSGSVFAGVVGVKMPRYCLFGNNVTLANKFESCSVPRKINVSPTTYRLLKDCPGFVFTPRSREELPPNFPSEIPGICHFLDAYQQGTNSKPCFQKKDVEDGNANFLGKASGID
T1 sequence (Q02153 1-619): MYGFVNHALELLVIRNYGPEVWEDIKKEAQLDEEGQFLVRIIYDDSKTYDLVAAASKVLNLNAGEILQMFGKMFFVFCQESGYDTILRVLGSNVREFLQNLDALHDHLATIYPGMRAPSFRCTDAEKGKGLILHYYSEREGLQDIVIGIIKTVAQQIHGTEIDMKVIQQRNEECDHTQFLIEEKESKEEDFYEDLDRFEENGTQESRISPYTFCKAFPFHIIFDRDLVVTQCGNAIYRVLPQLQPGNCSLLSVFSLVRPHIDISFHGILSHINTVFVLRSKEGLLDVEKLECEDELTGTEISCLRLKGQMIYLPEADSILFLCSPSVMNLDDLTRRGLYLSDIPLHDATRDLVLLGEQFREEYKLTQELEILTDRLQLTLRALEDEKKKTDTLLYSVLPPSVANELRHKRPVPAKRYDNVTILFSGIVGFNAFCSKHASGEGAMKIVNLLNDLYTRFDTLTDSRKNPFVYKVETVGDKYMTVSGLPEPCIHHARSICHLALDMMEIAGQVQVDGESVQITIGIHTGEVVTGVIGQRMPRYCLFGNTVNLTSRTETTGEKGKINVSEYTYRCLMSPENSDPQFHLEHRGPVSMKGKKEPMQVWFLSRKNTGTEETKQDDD
Briefly: Cell-based sGC functional assay (CASA assay): cGMP generation in CHO-K1/sGC cells, HTRF detection. As to conditions: for Emax: CHO-K1, percent activation relative to standard Compound A in CHO-K1/sGC cells, read-out: % Act.; for pEC50: inflection point (IP) of cGMP generation in CHO-K1/sGC cells, 4P fit, activity expressed as percentage of Compound A; for % Act.: percent activation relative to standard Compound A in CHO-K1/sGC cells. Put shortly: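 Stable CHO-K1/sGC cells in EBSS buffer with 5 mM MgCl2, 0.05% BSA and 0.5 mM IBMX were incubated with compound (2.5% DMSO final) ±1 μM DETA-NO for 1 hr at 37° C. cGMP was measured by HTRF. Activation is expressed as % of reference HDA Compound A maximum, with IP and max fold induction from a 4P fit.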
For orientation: TR-FRET usually uses a lanthanide donor and a delayed reading to cut background.

As a reminder, the pEC50 is −log10 of the EC50, conventionally taken in molar units. A higher pEC50 goes with a low EC50. Turning to `CN1CCN(c2nc(-c3cn4ccnc4c(CCC(F)(F)C(F)(F)F)n3)nc3c2C(C)(c2ccc(F)cn2)C(=O)N3)CC1` (stereo not drawn) [Example 295B, 5-(5-fluoropyridin-2-yl)-5-methyl-4-(4-methylpiperazin-1-yl)-2-(8-(3,3,4,4,4-pentafluorobutyl)imidazo[1,2-a]pyrazin-6-yl)-5H-pyrrolo[2,3-d]pyrimidin-6(7H)-one], the Emax is 96% and the pEC50 was 6.17.
The matching figures for `CC1(c2ccc(F)cn2)C(=O)Nc2nc(-c3cn4ccnc4c(CCC(F)(F)C(F)(F)F)n3)nc(NC3CC3)c21` (stereo not drawn) [Example 292B, 4-(cyclopropylamino)-5-(5-fluoropyridin-2-yl)-5-methyl-2-(8-(3,3,4,4,4-pentafluorobutyl)imidazo[1,2-a]pyrazin-6-yl)-5H-pyrrolo[2,3-d]pyrimidin-6(7H)-one]: 148% and 6.02.
For the molecule `CC1(C(=O)NC2CC2)C(=O)Nc2nc(-c3cn4ccnc4c(Cc4cccc(F)c4)n3)nc(N)c21` (single isomer, unassigned) [Example 36A, 4-amino-N-cyclopropyl-2-(8-(3-fluorobenzyl)imidazo[1,2-a]pyrazin-6-yl)-5-methyl-6-oxo-6,7-dihydro-5H-pyrrolo[2,3-d]pyrimidine-5-carboxamide], the pEC50 was 6.52 and the “% Act.” value was 151%.
With `Cn1cc(C2(C)C(=O)Nc3nc(-c4cn5ccnc5c(Cc5ccc(F)cc5)n4)nc(N)c32)cn1` (stereo not drawn) [Example 88B, 4-amino-2-(8-(4-fluorobenzyl)imidazo[1,2-a]pyrazin-6-yl)-5-methyl-5-(1-methyl-1H-pyrazol-4-yl)-5H-pyrrolo[2,3-d]pyrimidin-6(7H)-one], the Emax came to 79% and the pEC50 was 6.65.
As for `CC(C)(C)CCc1nc(-c2nc(N)c3c(n2)NC(=O)C3(C)c2ccc(F)cc2)cn2ccnc12` (stereo not drawn) [Example 121A, 4-amino-2-(8-(3,3-dimethylbutyl)imidazo[1,2-a]pyrazin-6-yl)-5-(4-fluorophenyl)-5-methyl-5H-pyrrolo[2,3-d]pyrimidin-6(7H)-one], the Emax came out at 145% and the pEC50 is 7.25.
The matching figures for `Nc1nc(-c2cn3cc(C(F)(F)F)nc3c(Cc3ccccc3F)n2)nc2c1C(C(=O)NC1CC1)(C1CC1)C(=O)N2` (stereo not drawn) [Example 45A, 4-amino-N,5-dicyclopropyl-2-(8-(2-fluorobenzyl)-2-(trifluoromethyl)imidazo[1,2-a]pyrazin-6-yl)-6-oxo-6,7-dihydro-5H-pyrrolo[2,3-d]pyrimidine-5-carboxamide]: 86% and 6.18.
The matching figures for `CC1(c2ccccc2)C(=O)Nc2nc(-c3cn4cc(C5CC5)nc4c(CCC(F)(F)C(F)(F)F)n3)nc(N)c21` (stereo not drawn) [Example 158B, 4-amino-2-(2-cyclopropyl-8-(3,3,4,4,4-pentafluorobutyl)imidazo [1,2-a]pyrazin-6-yl)-5-methyl-5-phenyl-5H-pyrrolo[2,3-d]pyrimidin-6(7H)-one]: 109% and 6.53.
For `CCC1(C2CC2)C(=O)Nc2nc(-c3cn4ccnc4c(Cc4ccccc4)n3)nc(N)c21` (single isomer, unassigned) [Example 77B, 4-amino-2-(8-benzylimidazo[1,2-a]pyrazin-6-yl)-5-cyclopropyl-5-ethyl-5H-pyrrolo[2,3-d]pyrimidin-6(7H)-one], the pEC50 was 7.52 and the “% Act.” value was 176%.
Consider `Nc1nc(-c2cn3ccnc3c(Cc3ccc(F)cc3)n2)nc2c1C(c1ccc(Cl)cn1)(C1CC1)C(=O)N2` (single isomer, unassigned) [Example 108B, 4-amino-5-(5-chloropyridin-2-yl)-5-cyclopropyl-2-(8-(4-fluorobenzyl)imidazo[1,2-a]pyrazin-6-yl)-5H-pyrrolo[2,3-d]pyrimidin-6(7H)-one], for which the pEC50 is 7.80 and the “% Act.” value was found to be 79%.
Consider `CC1(c2ccc(F)cc2)C(=O)Nc2nc(-c3cn4ccnc4c(Cc4ccc(F)cc4)n3)nc(N)c21` (stereo not drawn) [Example 92A, 4-amino-2-(8-(4-fluorobenzyl)imidazo[1,2-a]pyrazin-6-yl)-5-(4-fluorophenyl)-5-methyl-5H-pyrrolo[2,3-d]pyrimidin-6(7H)-one], for which the Emax was 97% and the pEC50 is 8.05.
The matching figures for `Cn1cc(C2(C)C(=O)Nc3nc(-c4cn5ccnc5c(Cc5ccc(F)cc5)n4)nc(N)c32)nn1` (stereo not drawn) [Example 65A, 4-amino-2-(8-(4-fluorobenzyl)imidazo[1,2-a]pyrazin-6-yl)-5-methyl-5-(1-methyl-1H-1,2,3-triazol-4-yl)-5H-pyrrolo[2,3-d]pyrimidin-6(7H)-one]: 108% and 6.59.
The matching figures for `CC1(C(=O)NC2CC2)C(=O)Nc2nc(-c3cn4cc(C(F)(F)F)nc4c(Cc4cccc(F)c4F)n3)nc(N)c21` (stereo not drawn) [Example 43A, 4-amino-N-cyclopropyl-2-(8-(2,3-difluorobenzyl)-2-(trifluoromethyl)imidazo[1,2-a]pyrazin-6-yl)-5-methyl-6-oxo-6,7-dihydro-5H-pyrrolo[2,3-d]pyrimidine-5-carboxamide]: 86% and 6.74.
The matching figures for `Nc1nc(-c2cn3cc(C(F)(F)F)nc3c(Cc3ccccc3)n2)nc2c1C(C(=O)NC1CC1)(C1CC1)C(=O)N2` (stereo not drawn) [Example 51A, 4-amino-2-(8-benzyl-2-(trifluoromethyl)imidazo[1,2-a]pyrazin-6-yl)-N,5-dicyclopropyl-6-oxo-6,7-dihydro-5H-pyrrolo[2,3-d]pyrimidine-5-carboxamide]: 93% and 6.05.
As for `CC1(C2CC2)C(=O)Nc2nc(-c3cn4ccnc4c(Cc4ccccc4)n3)nc(N)c21` (stereo not drawn) [Example 82A, 4-amino-2-(8-benzylimidazo[1,2-a]pyrazin-6-yl)-5-cyclopropyl-5-methyl-5H-pyrrolo[2,3-d]pyrimidin-6(7H)-one], the Emax is 120% and the pEC50 was 7.05.
The matching figures for `COc1ccc(C2(C3CC3)C(=O)Nc3nc(-c4cn5ccnc5c(CCC(F)(F)C(F)(F)F)n4)nc(N)c32)cn1` (stereo not drawn) [Example 343A, 4-amino-5-cyclopropyl-5-(6-methoxypyridin-3-yl)-2-(8-(3,3,4,4,4-pentafluorobutyl)imidazo[1,2-a]pyrazin-6-yl)-5H-pyrrolo[2,3-d]pyrimidin-6(7H)-one]: 121% and 7.34.
The matching figures for `CC(C)Cc1nc(-c2nc(N)c3c(n2)NC(=O)C3(C)c2ccc(OC(F)(F)F)cc2)cn2ccnc12` (stereo not drawn) [Example 25A, 4-amino-2-(8-isobutylimidazo[1,2-a]pyrazin-6-yl)-5-methyl-5-(4-(trifluoromethoxy)phenyl)-5H-pyrrolo[2,3-d]pyrimidin-6(7H)-one]: 87% and 6.49.
The matching figures for `CC(F)(F)c1ccc(C2(C)C(=O)Nc3nc(-c4cn5ccnc5c(CCCC(F)(F)F)n4)nc(N)c32)cn1` (single isomer, unassigned) [Example 380B, 4-amino-5-(6-(1,1-difluoroethyl)pyridin-3-yl)-5-methyl-2-(8-(4,4,4-trifluorobutyl)imidazo[1,2-a]pyrazin-6-yl)-5H-pyrrolo[2,3-d]pyrimidin-6(7H)-one]: 181% and 7.46.
With `CC1(c2ccc(Cl)cn2)C(=O)Nc2nc(-c3cn4c(N)cnc4c(CCC(F)(F)C(F)(F)F)n3)nc(N)c21` (stereo not drawn) [Example 269A, 4-amino-2-(3-amino-8-(3,3,4,4,4-pentafluorobutyl)imidazo[1,2-a]pyrazin-6-yl)-5-(5-chloropyridin-2-yl)-5-methyl-5H-pyrrolo[2,3-d]pyrimidin-6(7H)-one], the Emax turned out to be 198% and the negative logarithm of the EC50 (pEC50) is 5.29.
